{"source": "PubChem BioAssay AID1918947", "about": "(Molecular Pharmacology Branch, DTP, NCI, 2023)", "test_system": "A498 complex spheroid viability", "assay": "Anticancer human tumor A498 cell line growth inhibition;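 note: spheroids exposed to agents for seven days before readout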;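 for viability, T/C: 100% = DMSO vehicle-treated spheroids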", "conditions": "for viability, T/C: stronger effect = lower value", "description": "Multicellular complex tumor spheroid response to LSD1 Inhibitor Iadademstat in combination with a variety of drugs and investigational agents in selected tumor cell lines\nThe current study was undertaken to assess response to LSD1 inhibitors in combination with standard-of-care drugs and investigational agents in solid tumor complex spheroid models as well as in the K-562 leukemia. Complex spheroids include a stromal component modeled by human endothelial cells (HUVEC) and fibroblasts modeled by human mesenchymal stem cells (MSCs). The concentration ranges selected for each drug and investigational agent were based upon clinically achievable concentrations if the clinical Cmax of the agent was known.\nCompounds. The drugs and investigational agents used in this study are listed on Table 1. All of the agents used, including staurosporine (NSC755774) and gemcitabine (NSC613327), were obtained from the Developmental Therapeutics Program, NCI. FDA-approved anticancer drugs are available from the NCI at http://dtp.nci.nih.gov/branches/dscb/oncology_drugset_explanation.html. Drugs and investigational agents were >95% pure by proton nuclear magnetic resonance (NMR) and liquid chromatography/mass spectrometry (LC/MS). Stock solutions were prepared at 400x in DMSO, stored at -70 degrees C, and diluted in fresh medium prior to their use. The final concentration of DMSO in cell culture wells never exceeded 0.25% (v/v). The FDA-approved anticancer drug set is available from the Developmental Therapeutics Program at https://dtp.cancer.gov/organization/dscb/obtaining/available_plates.htm. All drugs and investigational agents were tested over a range starting from a high concentration at or near the clinical Cmax and decreasing in half-log increments. If the clinical Cmax for an agent had not been determined, the highest concentration tested was 10 microM.\nCell Lines. The patient-derived cancer cell (PDC) lines: 292921-168-R-J2-PDC, K24384-001-R-PDC, and 521955-158-R2-J5-PDC pancreatic carcinomas, 556581-035-R-J1 ovarian carcinoma, 324938-238-R-J1-PDC, 855422-203-R-J1-PDC and 883617-216-R-J1-PDC urothelial bladder carcinomas, 743489-274-T-PDC renal cell carcinoma, 138582-R-J1 Merkel cell tumor, K60290-347-R-J1 and K57222-313-R-J1-PDC glioblastomas, 653999-131-R-J2-PDC, LG0703-F948-PDC, and 349418-098-R-PDC non-small cell lung carcinomas, 885512-296-R-J2-PDC, 171881-019-R-J1-PDC breast carcinomas and 186277-243-T-J2-PDC and 233499-124-R-J2-PDC colon carcinomas were obtained from the NCI Patient-Derived Models Repository (PDMR, https://pdmr.cancer.gov). The established cell lines NCI/ADR-RES (RRID:CVCL_14520 and OVCAR-5 (RRID:CVCL_1628) ovarian carcinomas, 786-O (RRID:CVCL_1051) and A498 (RRID:CVCL_A498) renal cell carcinoma, NCI-H211 (ATCC, cat. CRL-5824; RRID:CVCL_1529), NCI-H196 (ATCC, cat. CRL-5823, RRID:CVCL_1509), SW 1271 (ATCC, cat. CRL-2177, RRID:CVCL_1716) and NCI-H1876 (ATCC, cat. CRL-5902, RRID:CVCL_1503) small cell lung carcinomas, MDA-MB-231 (RRID:CVCL_0062) and MDA-MB-468 (RRID:CVCL_0419)breast carcinomas (10-12). Pooled donor human umbilical vein endothelial cells (HUVEC, Lonza, cat. CC-2519) and human mesenchymal stem cells (hMSC, Lonza, cat. PT-2501) were purchased from Lonza (Walkersville, MD).\nCell Culture. All cells were maintained in an incubator at 37 degrees C and 5% CO2 with 95% humidity. The PDC lines were cultured according to standard operating procedures established by the NCI PDMR (https://pdmr.cancer.gov). Briefly all PDCs were thawed and cultured in Matrigel-coated flasks prepared with a working solution of 1X Ham's F-12 nutrient mix, without supplementation (Invitrogen, Waltham, MA, cat. 11765054), 100 U/mL penicillin-streptomycin (Invitrogen, cat. 15140122), and 2.5% Matrigel (Corning Inc., Corning, NY, cat. 354248) for the first three passages. […]", "note": "Several values for one entry are separate records, joined by “and”; a condition that tells them apart may be missing. Equal entries are not always repeated.", "data": [{"compound": "Nc1ncn(C2CC(O)C(CO)O2)c(=O)n1", "note": "(configuration not stated) + NC1CC1c1ccc(-c2cccc(O)c2)cc1", "values": [{"measurement": "IC50", "setting": "curve of first compound, second compound 0.1 µM", "result": "> 1000", "unit": "nM"}, {"measurement": "IC50", "setting": "curve of first compound, second compound 0.316 µM", "result": "> 1000", "unit": "nM"}, {"measurement": "IC50", "setting": "curve of first compound, second compound 1 µM", "result": "> 1000", "unit": "nM"}, {"measurement": "IC50", "setting": "curve of first compound, second compound 3.16 µM", "result": "> 1000", "unit": "nM"}, {"measurement": "IC50", "setting": "curve of first compound, second compound 10 µM", "result": "> 1000", "unit": "nM"}, {"measurement": "viability, T/C", "setting": "second compound 0.1 µM, first compound 0.00316 µM", "result": 110, "unit": "%"}, {"measurement": "viability, T/C", "setting": "second compound 0.1 µM, first compound 0.01 µM", "result": 113, "unit": "%"}, {"measurement": "viability, T/C", "setting": "second compound 0.1 µM, first compound 0.0316 µM", "result": 104, "unit": "%"}, {"measurement": "viability, T/C", "setting": "second compound 0.1 µM, first compound 0.1 µM", "result": 94.5, "unit": "%"}, {"measurement": "viability, T/C", "setting": "second compound 0.1 µM, first compound 0.316 µM", "result": 92.3, "unit": "%"}, {"measurement": "viability, T/C", "setting": "second compound 0.1 µM, first compound 1 µM", "result": 78.6, "unit": "%"}, {"measurement": "viability, T/C", "setting": "second compound 0.316 µM, first compound 0.00316 µM", "result": 118, "unit": "%"}, {"measurement": "viability, T/C", "setting": "second compound 0.316 µM, first compound 0.01 µM", "result": 120, "unit": "%"}, {"measurement": "viability, T/C", "setting": "second compound 0.316 µM, first compound 0.0316 µM", "result": 107, "unit": "%"}, {"measurement": "viability, T/C", "setting": "second compound 0.316 µM, first compound 0.1 µM", "result": 97.1, "unit": "%"}, {"measurement": "viability, T/C", "setting": "second compound 0.316 µM, first compound 0.316 µM", "result": 93.1, "unit": "%"}, {"measurement": "viability, T/C", "setting": "second compound 0.316 µM, first compound 1 µM", "result": 68.5, "unit": "%"}, {"measurement": "viability, T/C", "setting": "second compound 1 µM, first compound 0.00316 µM", "result": 113, "unit": "%"}, {"measurement": "viability, T/C", "setting": "second compound 1 µM, first compound 0.01 µM", "result": 114, "unit": "%"}, {"measurement": "viability, T/C", "setting": "second compound 1 µM, first compound 0.0316 µM", "result": 110, "unit": "%"}, {"measurement": "viability, T/C", "setting": "second compound 1 µM, first compound 0.1 µM", "result": 95.7, "unit": "%"}, {"measurement": "viability, T/C", "setting": "second compound 1 µM, first compound 0.316 µM", "result": 86.1, "unit": "%"}, {"measurement": "viability, T/C", "setting": "second compound 1 µM, first compound 1 µM", "result": 67.3, "unit": "%"}, {"measurement": "viability, T/C", "setting": "second compound 3.16 µM, first compound 0.00316 µM", "result": 112, "unit": "%"}, {"measurement": "viability, T/C", "setting": "second compound 3.16 µM, first compound 0.01 µM", "result": 114, "unit": "%"}, {"measurement": "viability, T/C", "setting": "second compound 3.16 µM, first compound 0.0316 µM", "result": 110, "unit": "%"}, {"measurement": "viability, T/C", "setting": "second compound 3.16 µM, first compound 0.1 µM", "result": 95.4, "unit": "%"}, {"measurement": "viability, T/C", "setting": "second compound 3.16 µM, first compound 0.316 µM", "result": 75.6, "unit": "%"}, {"measurement": "viability, T/C", "setting": "second compound 3.16 µM, first compound 1 µM", "result": 63.2, "unit": "%"}, {"measurement": "viability, T/C", "setting": "second compound 10 µM, first compound 0.00316 µM", "result": 107, "unit": "%"}, {"measurement": "viability, T/C", "setting": "second compound 10 µM, first compound 0.01 µM", "result": 100, "unit": "%"}, {"measurement": "viability, T/C", "setting": "second compound 10 µM, first compound 0.0316 µM", "result": 105, "unit": "%"}, {"measurement": "viability, T/C", "setting": "second compound 10 µM, first compound 0.1 µM", "result": 101, "unit": "%"}, {"measurement": "viability, T/C", "setting": "second compound 10 µM, first compound 0.316 µM", "result": 80.2, "unit": "%"}, {"measurement": "viability, T/C", "setting": "second compound 10 µM, first compound 1 µM", "result": 60.4, "unit": "%"}]}, {"compound": "Nc1ncn(C2CC(O)C(CO)S2)c(=O)n1", "note": "(configuration not stated)", "values": [{"measurement": "viability, T/C", "setting": "compound 0.000949 µM", "result": "105% and 109%"}, {"measurement": "viability, T/C", "setting": "compound 0.003 µM", "result": "104% and 117%"}, {"measurement": "viability, T/C", "setting": "compound 0.00949 µM", "result": "99.6% and 102%"}, {"measurement": "viability, T/C", "setting": "compound 0.03 µM", "result": "85.2% and 89.5%"}, {"measurement": "viability, T/C", "setting": "compound 0.0949 µM", "result": "59.4% and 70%"}, {"measurement": "viability, T/C", "setting": "compound 0.3 µM", "result": "33.8% and 40%"}, {"measurement": "IC50", "setting": "curve of compound", "result": "144 nM and 202 nM"}]}]}
